{"source": "patent US8889670B2", "about": "“Heterocyclic compounds which modulate the CB2 receptor” (Boehringer Ingelheim International GmbH, priority 2009, dated 2014)", "target": "T1, human CB2R (Homo sapiens, UniProt P34972)", "T1 construct": "host or cells: CHO cells", "T1 sequence (P34972 whole entry)": "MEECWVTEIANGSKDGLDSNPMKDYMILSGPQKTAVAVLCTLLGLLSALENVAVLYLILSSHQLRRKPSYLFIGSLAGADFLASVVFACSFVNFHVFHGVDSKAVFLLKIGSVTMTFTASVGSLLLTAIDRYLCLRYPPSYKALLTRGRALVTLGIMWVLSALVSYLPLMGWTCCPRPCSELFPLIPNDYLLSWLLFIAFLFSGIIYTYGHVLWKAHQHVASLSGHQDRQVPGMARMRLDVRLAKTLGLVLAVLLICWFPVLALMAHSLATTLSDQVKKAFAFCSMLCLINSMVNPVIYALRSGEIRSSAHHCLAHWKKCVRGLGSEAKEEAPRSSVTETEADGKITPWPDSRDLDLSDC", "assay": "CB2R mediated modulation of cAMP synthesis (forskolin-stimulated cAMP, CHO cells expressing human CB2R)", "type": "cell-based", "experimental": "B. CB2R Mediated Modulation of cAMP Synthesis:\nCompounds of the invention were evaluated for their CB2 agonist or inverse agonistic activity in accordance with the following experimental method.\nCHO cells expressing human CB2R (Euroscreen) were plated at a density of 5000 cells per well in 384 well plates and incubated overnight at 37° C. After removing the media, the cells were treated with test compounds diluted in stimulation buffer containing 1 mM IBMX, 0.25% BSA and 10 uM Forskolin. The assay was incubated for 30 minutes at 37° C. Cells were lysed and the cAMP concentration was measured using DiscoverX-XS cAMP kit, following the manufacturer's protocol. In this setting, agonists will decrease forskolin induced production of cAMP while inverse agonists will further increase forskolin induced production of cAMP. EC50 of agonists were calculated as follows. The maximal amount of cAMP produced by forskolin compared to the level of cAMP inhibited by 1 uM CP55940 is defined as 100%. […] Data was analyzed using a four-parameter logistic model. (Model 205 of XLfit 4.0).", "key": {"[1]": {"details": "agonist EC50, inhibition of forskolin-stimulated cAMP synthesis, CHO cells expressing human CB2R, mean, read-out: CB2 CAMP @ EC50 nM (mean)"}}, "note": "Like-named read-outs stand apart in the source and are kept apart here.", "data": [{"smiles": "CC(C)(C)c1cc(NC(=O)[C@@H]2CCCCN2C(=O)C2CCCCCC2)no1", "values": [{"measurement": "EC50", "result": 8.2, "unit": "nM"}]}, {"smiles": "CO[C@H]1CC[C@@H](C(=O)N2CCCC[C@H]2C(=O)Nc2cc(C(C)(C)C)on2)CC1", "values": [{"measurement": "EC50", "result": 43, "unit": "nM"}]}, {"smiles": "CC(C)(C)c1cc(NC(=O)C2CCCN(C(=O)N3CCS(=O)(=O)CC3)C2)no1", "note": "(stereo not shown) [1-(1,1-Dioxo-1λ6-thiomorpholine-4-carbonyl)-piperidine-3-carboxylic acid (5-tert-butyl-isoxazol-3-yl)-amide]", "values": [{"measurement": "EC50", "setting": "[1]", "result": 215, "unit": "nM"}]}, {"smiles": "CC(C)(C)c1cc(NC(=O)C2CCCCN2C(=O)C2CCC(F)(F)CC2)no1", "note": "(stereo not shown) [1-(4,4-Difluoro-cyclohexanecarbonyl)-piperidine-2-carboxylic acid (5-tert-butyl-isoxazol-3-yl)-amide]", "values": [{"measurement": "EC50", "result": 11, "unit": "nM"}]}, {"smiles": "CC(C)(C)c1cc(NC(=O)C2CCCN(C(=O)C3CCC(F)(F)CC3)C2)no1", "note": "(stereo not shown) [1-(4,4-Difluoro-cyclohexanecarbonyl)-piperidine-3-carboxylic acid (5-tert-butyl-isoxazol-3-yl)-amide]", "values": [{"measurement": "EC50", "result": 23, "unit": "nM"}]}, {"smiles": "CC(C)(C)c1cc(NC(=O)C2CCCN(S(=O)(=O)c3ccc(Cl)cc3)C2)no1", "note": "(stereo not shown) [1-(4-Chloro-benzenesulfonyl)-piperidine-3-carboxylic acid (5-tert-butyl-isoxazol-3-yl)-amide]", "values": [{"measurement": "EC50", "result": 12, "unit": "nM"}]}, {"smiles": "CC(C)(C)c1cc(NC(=O)C2CCCN(Cc3ccc(Cl)cc3)C2)no1", "note": "(stereo not shown) [1-(4-Chloro-benzyl)-piperidine-3-carboxylic acid (5-tert-butyl-isoxazol-3-yl)-amide]", "values": [{"measurement": "EC50", "result": 2.7, "unit": "nM"}]}, {"smiles": "CC(C)(C)c1cc(NC(=O)C2CCCCN2C(=O)c2ccc(C(F)(F)F)cc2)no1", "note": "(stereo not shown) [1-(4-Trifluoromethyl-benzoyl)-piperidine-2-carboxylic acid (5-tert-butyl-isoxazol-3-yl)-amide]", "values": [{"measurement": "EC50", "setting": "[1]", "result": 395, "unit": "nM"}]}, {"smiles": "CC(C)(C)c1cc(NC(=O)C2CCCN(C(=O)c3ccc(C(F)(F)F)cc3)C2)no1", "note": "(stereo not shown) [1-(4-Trifluoromethyl-benzoyl)-piperidine-3-carboxylic acid (5-tert-butyl-isoxazol-3-yl)-amide]", "values": [{"measurement": "EC50", "result": 16, "unit": "nM"}]}, {"smiles": "CC(C)(C)c1cc(NC(=O)C2CCCN(C(=O)C3CCOCC3)C2)no1", "note": "(stereo not shown) [1-(Tetrahydro-pyran-4-carbonyl)-piperidine-3-carboxylic acid (5-tert-butyl-isoxazol-3-yl)-amide]", "values": [{"measurement": "EC50", "setting": "[1]", "result": 205, "unit": "nM"}]}, {"smiles": "CC(C)(C)c1cc(NC(=O)C2CCCN(c3ncc(C(F)(F)F)cc3Cl)C2)no1", "note": "(stereo not shown) [3′-Chloro-5′-trifluoromethyl-3,4,5,6-tetrahydro-2H-[1,2′]bipyridinyl-3-carboxylic acid (5-tert-butyl-isoxazol-3-yl)-amide]", "values": [{"measurement": "EC50", "result": 113, "unit": "nM"}]}, {"smiles": "CC(C)(C)c1cc(NC(=O)C2COCCN2S(=O)(=O)c2ccc(Cl)cc2)no1", "note": "(stereo not shown) [4-(4-Chloro-benzenesulfonyl)-morpholine-3-carboxylic acid (5-tert-butyl-isoxazol-3-yl)-amide]", "values": [{"measurement": "EC50", "result": 34, "unit": "nM"}]}, {"smiles": "CC(C)(C)c1cc(NC(=O)C2CN(C(=O)c3ccc(C(F)(F)F)cc3)CCO2)no1", "note": "(stereo not shown) [4-(4-Trifluoromethyl-benzoyl)-morpholine-2-carboxylic acid (5-tert-butyl-isoxazol-3-yl)-amide]", "values": [{"measurement": "EC50", "result": 85, "unit": "nM"}]}, {"smiles": "CC(C)(C)c1cc(NC(=O)[C@@H]2C[C@@H](O)CCN2c2ncc(C(F)(F)F)cc2Cl)no1", "note": "[(2S,4S)-3′-Chloro-4-hydroxy-5′-trifluoromethyl-3,4,5,6-tetrahydro-2H-[1,2′]bipyridinyl-2-carboxylic acid (5-tert-butyl-isoxazol-3-yl)-amide]", "values": [{"measurement": "EC50", "result": 0.3, "unit": "nM"}]}, {"smiles": "CC(C)(C)c1cc(NC(=O)[C@H]2CCCCN2C(=O)C2CCC(F)(F)CC2)no1", "note": "[(R)-1-(4,4-Difluoro-cyclohexanecarbonyl)-piperidine-2-carboxylic acid (5-tert-butyl-isoxazol-3-yl)-amide]", "values": [{"measurement": "EC50", "result": 64, "unit": "nM"}]}, {"smiles": "CC(C)(C)c1cc(NC(=O)[C@@H]2CCCN(C(=O)C3CCC(F)(F)CC3)C2)no1", "note": "[(R)-1-(4,4-Difluoro-cyclohexanecarbonyl)-piperidine-3-carboxylic acid (5-tert-butyl-isoxazol-3-yl)-amide]", "values": [{"measurement": "EC50", "result": 42, "unit": "nM"}]}, {"smiles": "CC(C)(C)c1cc(NC(=O)[C@@H]2CCCN(c3ncc(C(F)(F)F)cc3Cl)C2)no1", "note": "[(R)-3′-Chloro-5′-trifluoromethyl-3,4,5,6-tetrahydro-2H-[1,2′]bipyridinyl-3-carboxylic acid (5-tert-butyl-isoxazol-3-yl)-amide]", "values": [{"measurement": "EC50", "result": 54, "unit": "nM"}]}, {"smiles": "CC(C)(C)c1cc(NC(=O)[C@@H]2CCCCCN2C(=O)N2CCS(=O)(=O)CC2)no1", "note": "[(S)-1-(1,1-Dioxo-1λ^6-thiomorpholine-4-carbonyl)-azepane-2-carboxylic acid (5-tert-butyl-isoxazol-3-yl)-amide]", "values": [{"measurement": "EC50", "result": 15, "unit": "nM"}]}, {"smiles": "CCn1nc(NC(=O)[C@@H]2CCCCN2C(=O)N2CCS(=O)(=O)CC2)nc1-c1ccccc1", "note": "[(S)-1-(1,1-Dioxo-1λ^6-thiomorpholine-4-carbonyl)-piperidine-2-carboxylic acid (1-ethyl-5-phenyl-1H-1,2,4-triazol-3-yl)-amide]", "values": [{"measurement": "EC50", "setting": "[1]", "result": 135, "unit": "nM"}]}, {"smiles": "O=C(Nc1cc(C2CCCCC2)no1)[C@@H]1CCCCN1C(=O)N1CCS(=O)(=O)CC1", "note": "[(S)-1-(1,1-Dioxo-1λ^6-thiomorpholine-4-carbonyl)-piperidine-2-carboxylic acid (3-cyclohexyl-isoxazol-5-yl)-amide]", "values": [{"measurement": "EC50", "result": 59, "unit": "nM"}]}, {"smiles": "CCC(C)c1cc(NC(=O)[C@@H]2CCCCN2C(=O)N2CCS(=O)(=O)CC2)on1", "note": "(stereo partly drawn) [(S)-1-(1,1-Dioxo-1λ^6-thiomorpholine-4-carbonyl)-piperidine-2-carboxylic acid (3-sec-butyl-isoxazol-5-yl)-amide]", "values": [{"measurement": "EC50", "setting": "[1]", "result": 105, "unit": "nM"}]}, {"smiles": "O=C(Nc1nc2c(F)cccc2s1)[C@@H]1CCCCN1C(=O)N1CCS(=O)(=O)CC1", "note": "[(S)-1-(1,1-Dioxo-1λ^6-thiomorpholine-4-carbonyl)-piperidine-2-carboxylic acid (4-fluoro-benzothiazol-2-yl)-amide]", "values": [{"measurement": "EC50", "setting": "[1]", "result": 59, "unit": "nM"}]}, {"smiles": "O=C(Nc1nc2cc(F)c(F)cc2s1)[C@@H]1CCCCN1C(=O)N1CCS(=O)(=O)CC1", "note": "[(S)-1-(1,1-Dioxo-1λ^6-thiomorpholine-4-carbonyl)-piperidine-2-carboxylic acid (5,6-difluoro-benzothiazol-2-yl)-amide]", "values": [{"measurement": "EC50", "setting": "[1]", "result": 448, "unit": "nM"}]}, {"smiles": "O=C(Nc1nc2cc(Cl)ccc2[nH]1)[C@@H]1CCCCN1C(=O)N1CCS(=O)(=O)CC1", "note": "[(S)-1-(1,1-Dioxo-1λ^6-thiomorpholine-4-carbonyl)-piperidine-2-carboxylic acid (5-chloro-1H-benzimidazol-2-yl)-amide]", "values": [{"measurement": "EC50", "result": 77, "unit": "nM"}]}, {"smiles": "CCc1sc(NC(=O)[C@@H]2CCCCN2C(=O)N2CCS(=O)(=O)CC2)nc1-c1ccccc1", "note": "[(S)-1-(1,1-Dioxo-1λ^6-thiomorpholine-4-carbonyl)-piperidine-2-carboxylic acid (5-ethyl-4-phenyl-thiazol-2-yl)-amide]", "values": [{"measurement": "EC50", "setting": "[1]", "result": 5.2, "unit": "nM"}]}, {"smiles": "O=C(Nc1nc2cc(F)ccc2s1)[C@@H]1CCCCN1C(=O)N1CCS(=O)(=O)CC1", "note": "[(S)-1-(1,1-Dioxo-1λ^6-thiomorpholine-4-carbonyl)-piperidine-2-carboxylic acid (5-fluoro-benzothiazol-2-yl)-amide]", "values": [{"measurement": "EC50", "result": 56, "unit": "nM"}]}, {"smiles": "CC(C)(C)c1nnc(NC(=O)[C@@H]2CCCCN2C(=O)N2CCS(=O)(=O)CC2)s1", "note": "[(S)-1-(1,1-Dioxo-1λ^6-thiomorpholine-4-carbonyl)-piperidine-2-carboxylic acid (5-tert-butyl-1,3,4-thiadiazol-2-yl)-amide]", "values": [{"measurement": "EC50", "setting": "[1]", "result": 53, "unit": "nM"}]}, {"smiles": "O=C(NCCSCc1c(F)cccc1Cl)[C@@H]1CCCCN1C(=O)N1CCS(=O)(=O)CC1", "note": "[(S)-1-(1,1-Dioxo-1λ^6-thiomorpholine-4-carbonyl)-piperidine-2-carboxylic acid [2-(2-chloro-6-fluoro-benzylsulfanyl)-ethyl]-amide]", "values": [{"measurement": "EC50", "setting": "[1]", "result": 130, "unit": "nM"}]}, {"smiles": "O=C(Nc1nc(-c2ccc(F)cc2)ns1)[C@@H]1CCCCN1C(=O)N1CCS(=O)(=O)CC1", "note": "[(S)-1-(1,1-Dioxo-1λ^6-thiomorpholine-4-carbonyl)-piperidine-2-carboxylic acid [3-(4-fluoro-phenyl)-[1,2,4]thiadiazol-5-yl]-amide]", "values": [{"measurement": "EC50", "setting": "[1]", "result": 22, "unit": "nM"}]}, {"smiles": "COc1ccc(-c2nsc(NC(=O)[C@@H]3CCCCN3C(=O)N3CCS(=O)(=O)CC3)n2)cc1", "note": "[(S)-1-(1,1-Dioxo-1λ^6-thiomorpholine-4-carbonyl)-piperidine-2-carboxylic acid [3-(4-methoxy-phenyl)-[1,2,4]thiadiazol-5-yl]-amide]", "values": [{"measurement": "EC50", "setting": "[1]", "result": 20, "unit": "nM"}]}, {"smiles": "O=C(Nc1nc(-c2ccc(F)cc2F)cs1)[C@@H]1CCCCN1C(=O)N1CCS(=O)(=O)CC1", "note": "[(S)-1-(1,1-Dioxo-1λ^6-thiomorpholine-4-carbonyl)-piperidine-2-carboxylic acid [4-(2,4-difluoro-phenyl)-thiazol-2-yl]-amide]", "values": [{"measurement": "EC50", "result": 22, "unit": "nM"}]}, {"smiles": "O=C(Nc1nc(-c2ccc(F)c(F)c2)cs1)[C@@H]1CCCCN1C(=O)N1CCS(=O)(=O)CC1", "note": "[(S)-1-(1,1-Dioxo-1λ^6-thiomorpholine-4-carbonyl)-piperidine-2-carboxylic acid [4-(3,4-difluoro-phenyl)-thiazol-2-yl]-amide]", "values": [{"measurement": "EC50", "setting": "[1]", "result": 26, "unit": "nM"}]}, {"smiles": "O=C(Nc1nc(-c2ccc(Cl)cc2)cs1)[C@@H]1CCCCN1C(=O)N1CCS(=O)(=O)CC1", "note": "[(S)-1-(1,1-Dioxo-1λ^6-thiomorpholine-4-carbonyl)-piperidine-2-carboxylic acid [4-(4-chloro-phenyl)-thiazol-2-yl]-amide]", "values": [{"measurement": "EC50", "result": 9.9, "unit": "nM"}]}, {"smiles": "O=C(Nc1nc(-c2ccc(F)cc2)cs1)[C@@H]1CCCCN1C(=O)N1CCS(=O)(=O)CC1", "note": "[(S)-1-(1,1-Dioxo-1λ^6-thiomorpholine-4-carbonyl)-piperidine-2-carboxylic acid [4-(4-fluoro-phenyl)-thiazol-2-yl]-amide]", "values": [{"measurement": "EC50", "result": 38, "unit": "nM"}]}]}
